Assay results from patent US20100227827A1, “METHOD OF INCREASING TRYPTOPHAN AND NICOTINAMIDE LEVELS IN VIVO” (priority 2006, published 2010).
Like-named read-outs stand apart in the source and are kept apart here.

Experiments:
[1] = Repeat daily oral doses, quinic acid analyzed in serum by HPLC; assay type: in vivo, human
Protocol: Trial design for the clinical evaluation of Aqua Bimini™ (quinic acid ammonium chelate) was carried out at Lund University beginning Apr. 28, 2006. Two Subjects identity code protected as HL and RP received Aqua Bimini™ at 1500 mg/day and 3000 mg/day, respectively for 4 consecutive weeks (36 days). Repeat serum and urine samples were collected throughout the trial period and then pooled into groups for analysis as 6 weeks before (baseline), 4 weeks of intervention (treatment, 36 days) and 8 months dry-out (no treatment).
Two human volunteers subject two and subject one ingested daily doses of 1500 mg per day or 3000 mg per day and serum samples collected on May 8, May 15, May 18, May 23, May 29, and June 1.
These samples were each analyzed for quinic acid content in 200 μl serum after precipitation with 2 M trichloroacetic acid (TCA). The column used for these experiments was a C18 80×4.6 mm. The mobile phase was 0.2% trifluoroacetic (TFA):methanol 85:15. The UV detector was set at 215 nm and quinic acid eluted with a retention time of 1.40-1.5 min. The sensitivity for detection of this method was about 1 mg quinic acid /ml serum or a detectable dose of 70 mg/kg in humans not 21 to 42 mg/kg as used herein in this study. Thus this protocol could assess if the quinic acid levels in serum would accumulate after repeated daily administration during a period of 4-5 weeks.

[2] = Urinary quinic acid, hippuric acid, tryptophan and nicotinamide by HPLC; assay type: in vivo, human; details: for urinary tryptophan at start of treatment / urinary nicotinamide at start of treatment: 8 May 2006 and 15 May 2006; for dose excreted at 9 month: urine, oral, read-out: Dose recovery (excrete/dose), excreted as unmetabolized quinic acid
Protocol: Blood samples were collected by venal puncture using vacutainers (red top, 10 ml) usually in the morning (a.m.) after 12 hours of fasting. Serum was separated from the blood clot after setting 2 hr on the bench top before centrifugation for 10 min at 1500×g. Sera prepared in this manner were stored at +4° C. until biochemical analysis usually within 1-30 days of collection. Urine samples were collected as a random 50 ml sample in the A.M. during the treatment and follow-up (after treatment for 8 months) periods. Urine was spun at 5000×g for 15 min and the supernatant stored at +4° C. until analyzed within 1 month of collection. After the first analysis all samples were further stored at −20° C. and used for repeat determinations over time. Trial design for the clinical evaluation of Aqua Bimini™ (quinic acid ammonium chelate) was carried out at Lund University beginning Apr. 28, 2006. […] Repeat serum and urine samples were collected throughout the trial period and then pooled into groups for analysis as 6 weeks before (baseline), 4 weeks of intervention (treatment, 36 days) and 8 months dry-out (no treatment). Urine samples were mixed with 1:2:4 v/v/v of: aqueous urine:95% ethanol:ethyl acetate for 10 min with vigorous shaking. The ethyl acetate layer was allowed to separate with gravity at room temperature, and then it was removed with a pipette and evaporated with an air stream to dryness in a vacuum hood. In this manner 1-2 ml of urine were reconstituted in 0.2 ml water or ethanol which represented a 5-10 fold increase in concentration. […] The urine samples were diluted 1:2:4 v/v/v with ethanol and ethyl acetate, and then the ethyl acetate fraction dried, solubilized in 0.2 ml water and used for HPLC analyses with 20 μl injections directly onto a C18 80×4.6 mm. The mobile phase was 0.2% trifluoroacetic (TFA):methanol:acetonitrile (70:30):water in a ratio 8:8:84 (v/v/v). The UV detector was set at 215 nm, and quinic acid eluted with a retention of 0.97-1.05 min and nicotinamide at 2.6-2.9 min. The detection limit in urine was about 1.5 mg/ml for quinic acid and for nicotinamide it was 0.015 mg/ml. […] The urine samples were diluted 1:2:4 v/v/v with ethanol and ethyl acetate, and then the ethyl acetate fraction dried, solubilized in 0.2 ml water and used for HPLC analyses with 20 μl injections directly onto a C18 80×4.6 mm. The mobile phase was 70:30 v/v, 0.2% TFA: 30% methanol. The UV detector was set at 225 nm. Tryptophan eluted after 5.2-5.4 min and hippuric acid after 3.1-3.4 min.

[3] = 3000 mg/day for 36 days (printed HL)
[4] = subject one (3000 mg/day), 1st 4 months no treatment, n=11
[5] = subject one (3000 mg/day), 2nd 4 months no treatment, n=3
[6] = subject one, 3000 mg/day QA (30 days), n=5
[7] = subject two (1500 mg/day), 1st 4 months no treatment, n=6
[8] = subject two (1500 mg/day), 2nd 4 months no treatment, n=6
[9] = subject two, 1500 mg/day QA (30 days), n=5

SMILES: O=C(O)[C@]1(O)C[C@@H](O)[C@@H](O)[C@H](O)C1 [Aqua Bimini™, quinic acid ammonium chelate]
- quinic acid in blood serum samples ([1]; 1500 mg or 3000 mg daily oral, 6 samples day 10 to day 37): No quinic acid was found
- quinic acid in human serum ([1]; efficacious dose 25 mg/kg in humans, HPLC detection limit 1 mg/kg): no quinic acid found
- urinary tryptophan at start of treatment ([2]; 3000 mg/day (printed HL)): 9.32 µM
- Increase in urinary quinic acid (QA) metabolite (ratio), tryptophan [2, 3]: 2.44
- Increase tryptophan/increase thiols [2, 3]: 1.94
- average urinary tryptophan during treatment + follow-up [2, 3]: 22.7 µM
- Increase in urinary quinic acid (QA) metabolite (ratio), nicotinamide ([2]; HL 1500 mg/day for 36 days): 2.83
- Increase in urinary quinic acid (QA) metabolite (ratio), tryptophan ([2]; HL 1500 mg/day for 36 days): 0.99
- Increase nicotinamide/increase thiols ([2]; HL 1500 mg/day for 36 days): 2.32
- Increase tryptophan/increase thiols ([2]; HL 1500 mg/day for 36 days): 0.82
- average urinary nicotinamide during treatment + follow-up ([2]; HL 1500 mg/day for 36 days): 215 µM
- average urinary tryptophan during treatment + follow-up ([2]; HL 1500 mg/day for 36 days): 21.3 µM
- urinary nicotinamide at start of treatment ([2]; HL 1500 mg/day): 76 µM
- urinary tryptophan at start of treatment ([2]; HL 1500 mg/day): 19.3 µM
- Increase in urinary quinic acid (QA) metabolite (ratio), nicotinamide ([2]; RP 3000 mg/day for 36 days): 5.41
- Increase nicotinamide/increase thiols ([2]; RP 3000 mg/day for 36 days): 4.29
- average urinary nicotinamide during treatment + follow-up ([2]; RP 3000 mg/day for 36 days): 57.9 µM
- urinary nicotinamide at start of treatment ([2]; RP 3000 mg/day): 10.7 µM
- Dose recovery (excrete/dose), excreted as unmetabolized quinic acid ([2]; Subject 3000 mg/day, 9 month evaluation period): 59%
- Ratio of total dose excreted in 9 months ([2]; human, in vivo, 9 months): 2.86
- remaining dose absorbed as hippuric acid or further metabolized to other compounds ([2]; human, in vivo, 1 day): 29.7%
- dose excreted at 9 month ([2]; human, 1500 mg/day, Subject 1500 mg/day, 9 month evaluation period): 40%
- dose excreted at 9 month ([2]; human, 3000 mg/day, Subject 3000 mg/day, 9 month evaluation period): 56%
- Urinary excretion daily sample, Tryptophan (avg) ([2]; oral human dose 21-42 mg/kg (1500-3000 mg/day), 33 days, average over 9 months of RP and HL): Tryptophan. = 4.2 mg/liter^b
- urinary Nicotinamide [2, 4]: 71 ± 44 µM
- urinary Tryptophan [2, 4]: 22 ± 7 µM
- urinary Nicotinamide [2, 5]: 71 ± 63 µM
- urinary Tryptophan [2, 5]: 19 ± 6 µM
- urinary Nicotinamide ([2]; subject one (3000 mg/day), total sample mean, 9 months, n=19): 58 ± 46 µM
- urinary Tryptophan ([2]; subject one (3000 mg/day), total sample mean, 9 months, n=19, listed as QA): 19 ± 7 µM
- urinary Nicotinamide [2, 6]: 21 ± 16 µM
- urinary Tryptophan [2, 6]: 13 ± 5 µM
- urinary Nicotinamide [2, 7]: 453 ± 139 µM
- urinary Tryptophan [2, 7]: 30 ± 8 µM
- urinary Nicotinamide [2, 8]: 24 ± 7 µM
- urinary Tryptophan [2, 8]: 17 ± 7 µM
- urinary Nicotinamide ([2]; subject two (1500 mg/day), total sample mean, 9 months, n=17): 216 ± 210 µM
- urinary Tryptophan ([2]; subject two (1500 mg/day), total sample mean, 9 months, n=17, listed as QA): 22 ± 9 µM
- urinary Nicotinamide [2, 9]: 163 ± 91 µM
- urinary Tryptophan [2, 9]: 18 ± 5 µM
- ratio of nicotinamide/thiols ratios, 3000 versus 1500 mg per day ([2]; theoretical dose ratio 2.0): 1.85
- ratio of tryptophan/thiols ratios, 3000 versus 1500 mg per day ([2]; theoretical dose ratio 2.0): 2.4
